Our source for the IC50 values is patent publication EP4745145A1, “SALT OF THIAZOLOPYRAZINE COMPOUND OR CRYSTAL THEREOF AND USE THEREOF” (Simcere Zaiming Pharmaceutical Co., Ltd., priority 2023, dated 2025).

SMILES strings stand for the structures.

The target in this test is T1, POLQ (Homo sapiens, UniProt O75417).
T1 construct: the N-terminal active peptide segment of POLQ with ATPase activity (M1-N899) is co-incubated with the compound; purchased Pharmaron
The experiment in a line: POLQ enzyme activity inhibition experiment (ATPase, NADH-coupled). Type of test: biochemical. As to the method:
Brief introduction to experimental principle: After the N-terminal active peptide segment of POLQ with ATPase activity (M1-N899) is co-incubated with the compound, this peptide segment reacts with substrate dT50 under the action of ATP to generate ADP. The generated ADP then participates in the subsequent NADH oxidation-coupled enzymatic reaction, catalyzing the conversion of NADH to NAD^+. The reduction in the OD value of NADH at 340 nm was measured using the Envision microplate reader from Perkin Elmer to reflect enzyme activity.
Experimental methods: The POLQ enzyme was diluted to 100 nM with a reaction buffer (20 mM Tris HCl (pH 7.80), 80 mM KCl, 10 mM MgCl2, 1 mM DTT, 0.01% w/v bovine serum albumin, 0.01% v/v Tween-20, 5% v/v glycerol). The test compound was diluted to different concentrations with dimethyl sulfoxide (DMSO) using the Echo 650 pipetting system and transferred to a 384-well plate, 20 µL/well of 100 nM POLQ was added, and the mixture was incubated at room temperature for 15 min. […] After the 384-well plate was reacted at room temperature for 20 min, the OD value at 340 nm was read using an Envision microplate reader.
Inhibition rates were calculated and fitted using XLfit software to give the IC50 of the compound. […]

T1 sequence (O75417 1-899): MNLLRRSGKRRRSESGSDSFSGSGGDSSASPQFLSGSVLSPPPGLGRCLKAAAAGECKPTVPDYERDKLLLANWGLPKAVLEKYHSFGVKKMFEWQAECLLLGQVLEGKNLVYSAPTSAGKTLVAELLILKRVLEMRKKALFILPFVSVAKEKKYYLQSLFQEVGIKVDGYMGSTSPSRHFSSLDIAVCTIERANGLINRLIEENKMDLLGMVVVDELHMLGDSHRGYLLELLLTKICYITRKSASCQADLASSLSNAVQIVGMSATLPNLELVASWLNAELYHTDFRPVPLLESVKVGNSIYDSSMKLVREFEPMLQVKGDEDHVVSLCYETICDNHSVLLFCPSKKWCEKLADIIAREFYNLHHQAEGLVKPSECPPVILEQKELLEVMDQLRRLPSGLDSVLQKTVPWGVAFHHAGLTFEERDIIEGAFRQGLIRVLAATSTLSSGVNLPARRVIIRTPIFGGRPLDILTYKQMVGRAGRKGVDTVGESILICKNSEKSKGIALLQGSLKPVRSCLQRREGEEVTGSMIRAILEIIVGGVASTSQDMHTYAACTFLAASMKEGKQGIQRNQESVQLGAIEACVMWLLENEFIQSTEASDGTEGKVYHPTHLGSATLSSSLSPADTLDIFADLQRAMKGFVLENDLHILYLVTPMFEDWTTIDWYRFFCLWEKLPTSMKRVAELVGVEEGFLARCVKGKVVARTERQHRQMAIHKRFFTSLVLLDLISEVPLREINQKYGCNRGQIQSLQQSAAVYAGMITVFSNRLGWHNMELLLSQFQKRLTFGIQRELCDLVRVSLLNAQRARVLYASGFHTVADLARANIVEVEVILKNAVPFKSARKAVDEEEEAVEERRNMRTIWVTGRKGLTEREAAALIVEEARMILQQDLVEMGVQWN

The IC50 is the concentration that inhibits the measured activity by half. The molecule `COc1ccc(Cl)cc1-c1cc(C)ncc1C(=O)Nc1nc2ncc(-c3ccc(C#N)cc3)nc2s1` [Compound of formula I, 4-(5-chloro-2-methoxyphenyl)-N-[6-(4-cyanophenyl)thiazolo[4,5-b]pyrazin-2-yl]-6-methylnicotinamide] had a half-inhibitory concentration (IC50) of less than 0.1 µM.
